Measured values taken from patent publication US20240269139A1, “COMPOUNDS FOR TARGETED PROTEIN DEGRADATION OF KINASES” (DANA-FARBER CANCER INSTITUTE, INC., priority 2020, published 2024).
Like-named read-outs stand apart in the source and are kept apart here.

How the values were obtained:
Type in all cases: cell-based
[1] = molecular target: T1, protein kinases (human kinome) (Homo sapiens, UniProt O14965)
T1 sequence (O14965 1-403): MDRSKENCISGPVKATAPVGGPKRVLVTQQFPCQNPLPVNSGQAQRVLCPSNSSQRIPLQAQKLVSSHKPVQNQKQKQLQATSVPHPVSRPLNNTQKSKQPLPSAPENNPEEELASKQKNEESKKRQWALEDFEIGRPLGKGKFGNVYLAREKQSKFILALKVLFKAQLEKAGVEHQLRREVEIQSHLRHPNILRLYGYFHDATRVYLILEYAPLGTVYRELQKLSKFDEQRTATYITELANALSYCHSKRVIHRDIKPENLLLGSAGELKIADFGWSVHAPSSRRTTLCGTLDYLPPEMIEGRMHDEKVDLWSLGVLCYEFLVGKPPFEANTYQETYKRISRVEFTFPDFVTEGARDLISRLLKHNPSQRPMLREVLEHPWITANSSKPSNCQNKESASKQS

[2] = molecular target: protein kinases (human kinome) (Homo sapiens, UniProt Q9H0K1); settings: for logFC of SIK2: Accession Q9H0K1; for logFC SIK2 (Q9H0K1): direction of change down; for logFC SIK2: SIK2 (Q9H0K1), down
[3] = molecular target: T2, protein kinases (human kinome) (Homo sapiens, UniProt O14976)
T2 sequence (O14976 1-1311): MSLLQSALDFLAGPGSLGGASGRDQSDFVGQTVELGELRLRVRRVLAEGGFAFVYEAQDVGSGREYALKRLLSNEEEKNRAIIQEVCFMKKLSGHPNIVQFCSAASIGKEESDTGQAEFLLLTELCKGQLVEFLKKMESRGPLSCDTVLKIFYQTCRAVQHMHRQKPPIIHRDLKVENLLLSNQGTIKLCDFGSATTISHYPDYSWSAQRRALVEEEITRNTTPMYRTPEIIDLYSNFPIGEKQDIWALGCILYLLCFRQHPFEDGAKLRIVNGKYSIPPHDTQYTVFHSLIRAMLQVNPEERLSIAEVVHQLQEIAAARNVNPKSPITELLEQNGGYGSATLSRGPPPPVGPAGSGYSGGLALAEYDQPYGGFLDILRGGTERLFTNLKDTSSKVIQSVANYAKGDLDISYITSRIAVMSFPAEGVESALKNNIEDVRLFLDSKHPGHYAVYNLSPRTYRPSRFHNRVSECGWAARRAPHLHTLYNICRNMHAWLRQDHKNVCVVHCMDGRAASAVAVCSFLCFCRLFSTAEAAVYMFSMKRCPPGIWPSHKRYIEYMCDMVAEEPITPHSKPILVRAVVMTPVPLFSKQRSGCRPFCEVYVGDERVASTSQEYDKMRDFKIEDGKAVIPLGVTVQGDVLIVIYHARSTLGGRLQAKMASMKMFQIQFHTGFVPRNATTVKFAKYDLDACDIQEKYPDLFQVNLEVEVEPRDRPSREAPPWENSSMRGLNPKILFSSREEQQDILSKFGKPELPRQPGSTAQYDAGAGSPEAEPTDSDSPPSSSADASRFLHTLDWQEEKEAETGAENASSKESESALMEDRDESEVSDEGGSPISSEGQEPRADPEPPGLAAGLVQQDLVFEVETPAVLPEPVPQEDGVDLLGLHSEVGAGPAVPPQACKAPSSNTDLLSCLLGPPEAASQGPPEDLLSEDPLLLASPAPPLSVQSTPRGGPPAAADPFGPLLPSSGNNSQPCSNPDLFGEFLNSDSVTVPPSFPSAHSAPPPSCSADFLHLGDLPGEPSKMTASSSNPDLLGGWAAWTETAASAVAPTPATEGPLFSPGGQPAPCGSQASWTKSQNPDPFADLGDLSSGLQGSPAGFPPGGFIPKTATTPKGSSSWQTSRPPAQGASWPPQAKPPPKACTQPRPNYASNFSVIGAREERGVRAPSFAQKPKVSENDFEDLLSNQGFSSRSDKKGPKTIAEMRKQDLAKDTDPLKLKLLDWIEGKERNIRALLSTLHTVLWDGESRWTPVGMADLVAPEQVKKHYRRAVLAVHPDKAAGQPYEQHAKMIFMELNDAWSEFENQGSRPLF

[4] = GAK (O14976), direction down, experiment wp045
[5] = GAK (O14976), direction down, experiment wp117

Sequence of protein kinases (human kinome) (Homo sapiens, UniProt Q9H0K1) (Q9H0K1 whole entry): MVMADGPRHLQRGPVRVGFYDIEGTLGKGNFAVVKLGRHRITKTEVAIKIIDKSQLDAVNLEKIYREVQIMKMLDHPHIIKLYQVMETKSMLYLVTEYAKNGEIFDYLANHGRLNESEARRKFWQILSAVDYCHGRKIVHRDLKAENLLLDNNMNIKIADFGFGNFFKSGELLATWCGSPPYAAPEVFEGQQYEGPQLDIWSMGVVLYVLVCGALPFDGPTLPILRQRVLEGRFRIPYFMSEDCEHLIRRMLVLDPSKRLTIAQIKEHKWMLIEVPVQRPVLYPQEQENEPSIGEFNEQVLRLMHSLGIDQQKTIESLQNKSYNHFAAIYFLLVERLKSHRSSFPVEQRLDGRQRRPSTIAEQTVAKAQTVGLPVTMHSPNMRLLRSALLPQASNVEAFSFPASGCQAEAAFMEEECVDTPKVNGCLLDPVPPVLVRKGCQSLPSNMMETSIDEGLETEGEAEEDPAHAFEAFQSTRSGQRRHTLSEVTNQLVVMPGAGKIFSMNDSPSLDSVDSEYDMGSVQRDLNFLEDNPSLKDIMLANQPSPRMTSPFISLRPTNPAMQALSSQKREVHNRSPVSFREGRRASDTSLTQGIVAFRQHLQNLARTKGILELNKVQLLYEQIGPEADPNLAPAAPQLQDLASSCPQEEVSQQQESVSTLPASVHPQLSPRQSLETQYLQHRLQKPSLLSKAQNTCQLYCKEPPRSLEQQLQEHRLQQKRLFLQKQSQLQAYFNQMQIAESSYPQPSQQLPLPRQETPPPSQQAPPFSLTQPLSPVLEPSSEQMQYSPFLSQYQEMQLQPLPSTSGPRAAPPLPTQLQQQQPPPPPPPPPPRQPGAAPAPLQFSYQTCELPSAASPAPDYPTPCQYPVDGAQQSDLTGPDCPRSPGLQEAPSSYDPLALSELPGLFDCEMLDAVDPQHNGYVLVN

Which “logFC AURKA (O14965)” value ([1]; experiment wp134) does the source give for `O=C(COc1cccc2c1C(=O)N(C1CCC(=O)NC1=O)C2=O)NCCCCCCCN1CCc2cc(Nc3ncc(C4CC4)c(NCCCNC(=O)C4CCC4)n3)ccc2C1` (stereo not drawn) [BSJ.04.178] here?
Its value is −0.4772.

And the “logFC of SIK2” value ([2]; experiment wp134)?
The value was −1.351.

And the “logFC SIK2 (Q9H0K1)” value ([2]; experiment wp134)?
Its value is −1.351.

And the “logFC of GAK (O14976)” value ([3]; Experiment wp134, down)?
Its value is −2.402.

What about the “logFC GAK” value ([3]; GAK (O14976), direction down, experiment wp134) of the same molecule?
Its value is −2.402.

Which results are given for `CS(=O)(=O)Nc1cccc(-c2csc3cnc(Nc4ccc(N5CCN(CCCCCOc6cccc7c6C(=O)N(C6CCC(=O)NC6=O)C7=O)CC5)cc4)nc23)c1` (stereo not drawn) [DB0614, N-(3-(2-((4-(4-(5-((2-(2,6-Dioxopiperidin-3-yl)-1,3-dioxoisoindolin-4-yl)oxy)pentyl)piperazin-1-yl)phenyl)amino)thieno[3,2-d]pyrimidin-7-yl)phenyl)methanesulfonamide]?
logFC AURKA (O14965) ([1]; experiment wp045): −0.385; logFC AURKA (O14965) ([1]; experiment wp117): −0.4547; logFC of SIK2 ([2]; experiment wp045): −0.5292; logFC of SIK2 ([2]; experiment wp117): −0.3766; logFC SIK2 ([2]; experiment wp045): −0.5292; logFC SIK2 (Q9H0K1) ([2]; experiment wp117): −0.3766; logFC of GAK (O14976) ([3]; Experiment wp045, down): −0.3305; logFC of GAK (O14976) ([3]; Experiment wp117, down): −0.4196; logFC GAK [3, 4]: −0.3305; logFC GAK [3, 5]: −0.4196

What does the source list for `Cc1ccc(NC(=O)c2cccc(C(F)(F)F)c2)cc1N1Cc2cnc(Nc3ccc(N4CCN(Cc5cn(CCCCCOc6cccc7c6C(=O)N(C6CCC(=O)NC6=O)C7=O)nn5)CC4)nc3)nc2N(C)C1=O` (stereo not drawn) [DB0646, N-(3-(7-((6-(4-((1-(5-((2-(2,6-Dioxopiperidin-3-yl)-1,3-dioxoisoindolin-4-yl)oxy)pentyl)-1H-1,2,3-triazol-4-yl)methyl)piperazin-1-v)pyridin-3-yl)amino)-1-methyl-2-oxo-1,4-dihydropyrimido[4,5-d]pyrimidin-3(2H)-yl)-4-methylphenyl)-3-(trifluoromethyl)benzamide]?
logFC AURKA (O14965) ([1]; experiment wp045): −0.3242; logFC AURKA (O14965) ([1]; experiment wp160, 4 hr): −0.4478; logFC of SIK2 ([2]; experiment wp045): −0.638; logFC of SIK2 ([2]; experiment wp107): −0.5933; logFC of SIK2 ([2]; experiment wp114): −0.4347; logFC of SIK2 ([2]; experiment wp117): −0.4315; logFC of SIK2 ([2]; experiment wp160, 4 hr): −0.5421; logFC of SIK2 ([2]; experiment wp160, 8 hr): −0.5707; logFC SIK2 (Q9H0K1) ([2]; Experiment wp114): −0.4347; logFC SIK2 ([2]; experiment wp045): −0.638; logFC SIK2 (Q9H0K1) ([2]; experiment wp107): −0.5933; logFC SIK2 (Q9H0K1) ([2]; experiment wp117): −0.4315; logFC SIK2 (Q9H0K1) ([2]; experiment wp160, 4 hr): −0.5421; logFC SIK2 (Q9H0K1) ([2]; experiment wp160, 8 hr): −0.5707; logFC of GAK (O14976) ([3]; Experiment wp045, down): −0.6424; logFC of GAK (O14976) ([3]; Experiment wp103, down): −0.4684; logFC of GAK (O14976) ([3]; Experiment wp105, down): −0.3367; logFC of GAK (O14976) ([3]; Experiment wp107, down): −0.5564; logFC of GAK (O14976) ([3]; Experiment wp114, down): −0.3391; logFC of GAK (O14976) ([3]; Experiment wp117, down): −0.5868; logFC of GAK (O14976) ([3]; Experiment wp152, down): −0.5117; logFC of GAK (O14976) ([3]; Experiment wp160, 4 hr, down): −0.4714; logFC GAK [3, 4]: −0.6424; logFC GAK ([3]; GAK (O14976), direction down, experiment wp103): −0.4684; logFC GAK ([3]; GAK (O14976), direction down, experiment wp105): −0.3367; logFC GAK ([3]; GAK (O14976), direction down, experiment wp107): −0.5564; logFC GAK ([3]; GAK (O14976), direction down, experiment wp114): −0.3391; logFC GAK [3, 5]: −0.5868; logFC GAK ([3]; GAK (O14976), direction down, experiment wp152): −0.5117; logFC GAK ([3]; GAK (O14976), direction down, experiment wp160, 4 hr): −0.4714; logFC GAK ([3]; GAK (O14976), direction down, experiment wp160, 8 hr): −0.8149; logFC GAK ([3]; GAK (O14976), experiment wp160, 8 hr, degrader vs DMSO, down): −0.8149; logFC GAK ([3]; GAK (O14976), experiment wp172, down): −0.345; logFC GAK ([3]; GAK, accession O14976, experiment wp172, direction of change down): −0.345

Which “logFC AURKA (O14965)” value ([1]; experiment wp147, 4 uM) does the source give for `CC(C)(C)c1nc(-c2cccc(NS(=O)(=O)c3c(F)cccc3F)c2F)c(-c2ccnc(NCCOCCNC(=O)CCOCCOCCNc3cccc4c3C(=O)N(C3CCC(=O)NC3=O)C4=O)n2)s1` (stereo not drawn) [DD.03.106] here?
The value was −0.3302.

What does the source list for `Cc1cnc(Nc2ccc(N3CCN(CCOCCOCCNC(=O)COc4cccc5c4C(=O)N(C4CCC(=O)NC4=O)C5=O)CC3)cc2)nc1Nc1cccc(S(=O)(=O)NC(C)(C)C)c1` (stereo not drawn) [JWG.118]?
logFC AURKA (O14965) ([1]; experiment wp071): −0.8861; logFC of GAK (O14976) ([3]; Experiment wp071, down): −1.972; logFC GAK ([3]; GAK (O14976), direction down, experiment wp071): −1.972

What does the source list for `CNC(=O)c1ccccc1Nc1cc(Nc2ccc(N3CCN(CCOCCOCCNC(=O)CNc4cccc5c4C(=O)N(C4CCC(=O)NC4=O)C5=O)CC3)cc2OC)ncc1C(F)(F)F` (stereo not drawn) [MFH.5.103.1]?
logFC AURKA (O14965) ([1]; experiment wp076): −0.9893; logFC AURKA (O14965) ([1]; experiment wp078): −0.9893

For `CCc1cnn2c(N(Cc3ccc(N)nc3)C(=O)CCOCCOCCOCCNC(=O)CNc3cccc4c3C(=O)N(C3CCC(=O)NC3=O)C4=O)cc(N3CCCC[C@H]3CCO)nc12` (stereo partly drawn) [MFH.5.115.2], which “logFC AURKA (O14965)” value ([1]; experiment wp076) is on record?
Its value is −0.5912.

Which “logFC AURKA (O14965)” value ([1]; experiment wp076) does the source give for `O=C1CCC(N2C(=O)c3cccc(NCCCCCCCCN4CCC(NC(=O)c5[nH]ncc5NC(=O)c5c(Cl)cccc5Cl)CC4)c3C2=O)C(=O)N1` (stereo not drawn) [MFH.5.126.1] here?
The value was −0.9474.

`CS(=O)(=O)Nc1cccc(-c2csc3cnc(Nc4ccc(N5CCN(CCOCCOCCOc6cccc7c6C(=O)N(C6CCC(=O)NC6=O)C7=O)CC5)cc4)nc23)c1` (stereo not drawn) [RSS0628] was tested. Which “logFC AURKA (O14965)” value ([1]; experiment wp045) did it give?
The value was −1.13.

With `Nc1ncnc2c1c(-c1ccc(Oc3ccccc3)cc1)nn2[C@H]1CC[C@H](N2CCN(CCOCCNC(=O)CNc3cccc4c3C(=O)N(C3CCC(=O)NC3=O)C4=O)CC2)CC1` (stereo partly drawn) [SB1.G.181] as the molecule, how does the “logFC AURKA (O14965)” value ([1]; experiment wp071) read?
Its value is −0.3684.

How did the “logFC AURKA (O14965)” value ([1]; experiment wp016) turn out when `CC(C)S(=O)(=O)c1ccccc1Nc1nc(Nc2ccc(N3CCN(CCOCCNC(=O)CNc4ccc5c(c4)C(=O)N(C4CCC(=O)NC4=O)C5=O)CC3)cc2)ncc1Cl` (stereo not drawn) [SK.3.93] was run?
The value was −1.823.

What about the “logFC of GAK (O14976)” value ([3]; Experiment wp016, down) of the same molecule?
Its value is −0.4334.

What about the “logFC GAK” value ([3]; GAK (O14976), direction down, experiment wp016) of the same molecule?
The value was −0.4334.

How did the “logFC AURKA (O14965)” value ([1]; experiment wp014) turn out when `CC(C)S(=O)(=O)c1ccccc1Nc1nc(Nc2ccc(N3CCN(CCOCCOCCC(=O)NCCNc4cccc5c4CN(C4CCC(=O)NC4=O)C5=O)CC3)cc2)ncc1Cl` (stereo not drawn) [TL13.97] was run?
The value was −0.3268.

What about the “logFC AURKA (O14965)” value ([1]; experiment wp137) of the same molecule?
Its value is −1.612.

`NC(=O)c1c(F)cccc1Nc1nc(Nc2ccc(S(=O)(=O)NCCOCCOCCOCCOCCNc3cccc4c3C(=O)N(C3CCC(=O)NC3=O)C4=O)cc2)ncc1Br` (stereo not drawn) [TMX.02.138] was tested. Which “logFC AURKA (O14965)” value ([1]; experiment wp146) did it give?
The value was −2.933.

`Cc1cc(Nc2ncc(Br)c(Nc3cccc(F)c3C(N)=O)n2)ccc1S(=O)(=O)NCCOCCOCCOCCOCCNc1cccc2c1C(=O)N(C1CCC(=O)NC1=O)C2=O` (stereo not drawn) [TMX.02.174] was tested. Which “logFC AURKA (O14965)” value ([1]; experiment wp146) did it give?
The value was −2.865.
